According to paper PMC4724246 (Molecular cell, 2015):

B1: MCM, wild-type (S. islandicus) (natural protein, UniProt F0NF15 1-686, looked up)
chain: MEIPSKQIDYRDLFIEFLTTFKNTNNQNKYIERINELIAYRKKSLIVEFSDILSFNENLAYEIINNTKIVLPILEGALYDHILQLDPTYQRDIEKVHVRIVGIPRVIELRKIRSTDIDKLITIDGILVKVTPVKERIYKATYKHIHPDCMQEFEWPEDEEMPEILEMPTICPKCGKPGQFRLIPEKTKLIDWQKAVIQERPEEVPSGQLPRQLEIILEDDLVDSARPGDRVKVTGILEIKQDSPIKRGSRAVFDIYMKVSSIEVSQKVLDEVTISEEDEKKIKDLAKDPWIRDRIIASIAPSIYGHWELKEALALALFGGVPKVLEDTRIRGDIHILIIGDPGTAKSQMLQFISRVAPRAVYTTGKGSTAAGLTAAVVREKGTGEYYLEAGALVLADGGIAVIDEIDKMRDEDRVAIHEAMEQQTVSIAKAGIVAKLNARAAVIAAGNPKFGRYITERPVSDNINLPPTILSRFDLIFILKDQPGEQDRELANYILDVHSGKSTKNIIDIDTLRKYIAYARKYIIPKITSEAKNLITDFFVEMRKKSSETPDSPILITPRQLEALIRISEAYAKMALKTEVTREDAERAINIMRLFLESVGVDMESGKIDIDTIMTGKPKSAREKMMKILEIIDSLAVSSECAKVKDILKEAQQVGIEKSNIEKLLTDMRKSGIIYEAKPECYKKV

Tests used:
[1] = target: MCM ΔC (Saccharolobus islandicus, UniProt F0NF15); experiment: colorimetric phosphate release ATPase assay; format: biochemical; conditions: 1 mM ATP, 10 mM magnesium acetate, pH 7.9, 50 °C
[2] = target: the molecule itself; experiment: SEC

| Molecule | colorimetric phosphate release ATPase assay [1] | stoichiometry N [2] |
| --- | --- | --- |
| Nc1ncnc2c1ncn2[C@@H]1O[C@H](COP(=O)(O)OP(=O)(O)OP(=O)(O)O)[C@@H](O)[C@H]1O [ATP] | loss of the wH domain results in a marked activation of the ATPase activity |  |
| B1 |  | 6 |
